Measured values as given in the SangsterLogP compilation.

Assay: method code SF-AS, from DOI: 10.1006/pest.1994.1057

| Structure (SMILES) | logP |
| --- | --- |
| O=[N+]([O-])N=C1NCCN1Cc1cccnc1 | -0.19 |
| O=[N+]([O-])C=C1NCCN1CCc1ccc(Cl)nc1 | -0.23 |
| O=[N+]([O-])C=C1NCCN1c1ccc(Cl)nc1 | -0.23 |
| O=[N+]([O-])C=C1NCCN1Cc1ccc(Cl)cc1 | 0.99 |
| O=[N+]([O-])/C=C1\NCCN1Cc1ccccc1 | 0.33 |
| O=[N+]([O-])C=C1NCCN1Cc1ccccn1 | -0.87 |
| O=[N+]([O-])C=C1NCCCN1Cc1ccc(Cl)nc1 | -0.62 |
| O=[N+]([O-])C=C1NCCN1Cc1ccncc1 | -1.05 |
| O=[N+]([O-])C=C1SCCN1Cc1ccc(Cl)nc1 | 0.65 |
| O=[N+]([O-])/C=C1\NCCN1Cc1ccc(Cl)nc1 | -0.19 |
| Cc1ccc(CN2CCNC2=C[N+](=O)[O-])cn1 | -0.59 |
| CN1CCN(Cc2ccc(Cl)nc2)C1=N[N+](=O)[O-] | 0.26 |
| O=[N+]([O-])/C=C1/NCCN1Cc1cccnc1 | -1.02 |
| N#CN=C1NCCN1Cc1ccc(Cl)nc1 | 0.77 |
